The values that follow come from patent US6380167B1, “Methods for anti-tumor therapy” (priority 1999, dated 2002).

As usually defined, the IC50 is the point on the concentration scale where inhibition reaches its midpoint.

“Also recorded” adds a separate entry of the source. Where two headings read alike, the source gives them in different places.

The test system of one data set is patient tumor cells. Description: Comparison of cardiac glycosides in the anti-tumor assays. It counts as cell-based, human. The settings on record: cardiac glycosides tested. The procedure:
Alamer Blue (Accumed International, Westlake Ohio) was then added to the cells at 1/10 the volume of the well, and the cells were further incubated at 37° C. for various times. Alamer Blue dye measures cellular re-dox reactions (ie: cellular respiration) whereby a spectral shift occurs upon reduction of the dye. (Excitation 530 nm; emission 590 nm)
The kinetics of cellular re-dox reactions were subsequently measured at various times, for example at 3 hours, 3 days, and 5 days post-dye addition.

Data set [1] concerns cells derived from ovarian tumor tissue. Description: Alamer Blue cellular respiration assay on cells derived from ovarian tumor tissue. It counts as cell-based. To be noted: Homo sapiens. From the text:
(§1) Excess tissue specimens obtained from a variety of organs and tissues such as colon, lung, kidney, stomach, and buttocks were obtained freshly at the time of surgery and samples were sent for pathological testing. For diagnosis and grading of tissue samples (ie: prior to processing), hematoxylin and eosin stained tissue sections were examined by a pathologist. If the diagnosis and grading of the tissue concurred with the determination made by the surgical pathologist that provided the tissue, then the tissue was used in the screen. If there was no agreement, then two additional pathologists served as referees. If no consensus was reached, then the tissue was discarded. […]
(§2) After tissue processing, the relative purity of the resulting cell suspension was determined by cytological examination after pap staining. […]
(§3) Cell preparations that passed histological and cytological examination for diagnosis, grading, and cell purity were thawed at 37° C. and resuspended in tissue culture medium designed to maintain the cells during the incubation period. The live and dead cells were counted and the cells were diluted in culture medium to 4.0×10^4 live cells/ml for tumor cells and 1.32×10^5 live cells/ml for normal cells. […]
(§4) The kinetics of cellular re-dox reactions were subsequently measured at various times, for example at 3 hours, 3 days, and 5 days post-dye addition. […]

For data set [2] the following is noted: in vivo; cited from earlier work.
Data set [3] concerns cells isolated from sarcoma patients. Kind of data set: Alamer Blue cellular respiration assay on cells isolated from sarcoma patients. The class given is cell-based. To be noted: Homo sapiens.
Description: as §1, §2, §3, §4

For data set [4] the following is noted: toxic at concentrations above; cited from earlier work.
[5] abbreviates: range over samples, read-out: IC50 (range).

Turning to `C[C@H]1O[C@@H](O[C@H]2[C@@H](O)C[C@H](O[C@H]3[C@@H](O)C[C@H](O[C@H]4CC[C@@]5(C)[C@H](CC[C@@H]6[C@@H]5C[C@@H](O)[C@]5(C)[C@@H](C7=CC(=O)OC7)CC[C@]65O)C4)O[C@@H]3C)O[C@@H]2C)C[C@H](O)[C@@H]1O` [digoxin], the “activity in the assays compared with digitoxin” value in the data set with patient tumor cells is listed as “Digitoxin appeared more active in the assays then digoxin”.
On to `CC1OC(OC2C(O)CC(O[C@H]3CC[C@]4(C)C5CC[C@]6(C)[C@@H](C7=CC(=O)OC7)CC[C@]6(O)[C@@H]5CC[C@@H]4C3)O[C@@H]2C)C[C@H](O)[C@@H]1OC1CC(O)C(O)[C@@H](C)O1` (some centres unmarked) [digitoxin], for which the IC50 in data set [1] (mean, read-out: IC50 (mean)) was 47 nM; in data set [1] (setting [5]), 31 to 126 nM; in data set [3] (mean, read-out: IC50 (mean)) it was 25 nM; in data set [3] (setting [5]), 13 to 48 nM. Moreover, the “bound to plasma proteins” value in data set [2] is “greater than 95%”. Also, the toxic concentration entry in data set [4] is listed as “above 35 ng/ml; also recorded: approximately 46 nM”.
Consider `C[C@@H]1O[C@@H](O[C@H]2C[C@@H](O)[C@]3(CO)[C@H]4[C@H](O)C[C@]5(C)[C@@H](C6=CC(=O)OC6)CC[C@]5(O)[C@@H]4CC[C@]3(O)C2)[C@H](O)[C@H](O)[C@H]1O` [oubain], for which the “activity in the assays compared with digitoxin” value with patient tumor cells is reported as “equally active”.
